{"source": "paper PMC5384453", "about": "“A multi-functional PEGylated gold(III) compound: potent anti-cancer properties and self-assembly into nanostructures for drug co-delivery” (Chemical Science, 2016)", "assay_type_in_all_cases": "cell-based, human", "key": {"HCT116 cells [1]": {"test_system": "HCT116 cells", "assay": "Flow cytometric analysis of apoptosis with propidium iodide co-staining (Fig. S14, S15)", "details": "HCT116, 2 μM", "description": "with gold(III) complexes and FITC-annexin V staining. HCT116 (1×10 5 cells) and […]\nannexin-binding buffer solution. The cells were then incubated with FITC-annexin V […]\nat room temperature in dark for 15 min. The solution was then removed, and the cells were washed with annexin-binding buffer solution. Fluorescence images were then […]\nin ice and analyzed by flow cytometry immediately. […]\nstaining and flow cytometry. […]\natmosphere of 5% CO2. After reaching 80% confluency, the culture medium was […]\nof 5% CO2 for 45 min. The solution was then removed. The stained NCM460 cells […]\nthe procedure described above. […]\n(§1) right fore of BALB/c nude mice. When the tumor volume reached 70 mm3 after […]\npropidium iodide staining. (b) Flow cytometric analysis of NCM460 […]\nannexin V and propidium iodide staining. (c) Flow cytometric analysis […]\nannexin V and propidium iodide staining."}, "HCT116 cells [2]": {"test_system": "HCT116 cells", "assay": "Co-culture model of HCT116 and NCM460, FITC-Annexin V flow cytometry", "details": "HCT116 in co-culture with CMF2HC-stained NCM460, 2 μM, 24 h", "description": "(§2) To further verify the ability of 1 to selectively induce apoptosis of HCT116 cells over NCM460 cells, HCT116 and NCM460 cells were co-cultured and incubated with 1 for 24 h, and then stained with FITC-Annexin V and propidium iodide. In order to differentiate the two different cell lines, NCM460 cells were pre-treated with blue-emissive CMF2HC dye prior to its co-culture with HCT116 cells. […] In a parallel experiment, co-cultured cells treated with 1 for 24 h and stained with FITC-Annexin V and propidium iodide were imaged by fluorescence microscopy (Fig. 4a). Green and red fluorescence were primarily observed in cells without showing blue luminescence, i.e. HCT116 cells. […] The results of both the fluorescence microscopy and flow cytometry support the high selectivity of 1 on killing colon cancer cells in the co-culture model of cancer and normal cells.\n(§3) atmosphere of 5% CO2. After reaching 80% confluency, the culture medium was\n(§4) of 5% CO2 for 45 min. The solution was then removed. The stained NCM460 cells\n(§5) the procedure described above.\nas §1"}, "NCM460 cells": {"test_system": "NCM460 cells", "assay": "Co-culture model of HCT116 and NCM460, FITC-Annexin V flow cytometry", "details": "CMF2HC-stained NCM460 in co-culture with HCT116, 2 μM, 24 h", "description": "as §2, §3, §4, §5, §1"}}, "data": [{"substance": "[Au(TPP–COO–PEG5000–OCH3)]Cl [Compound 1]", "values": [{"measurement": "apoptotic cells (Q4 region, corrected)", "setting": "HCT116 cells [1]; 24 h", "value": 35.83, "unit": "%"}, {"measurement": "late apoptotic events (Q2 region, corrected)", "setting": "HCT116 cells [1]; 24 h", "value": 1.96, "unit": "%"}, {"measurement": "apoptotic cells (Q4 region, corrected)", "setting": "HCT116 cells [1]; 36 h", "value": 43.83, "unit": "%"}, {"measurement": "late apoptotic events (Q2 region, corrected)", "setting": "HCT116 cells [1]; 36 h", "value": 10.6, "unit": "%"}, {"measurement": "cells undergoing apoptosis (FITC-Annexin V, corrected)", "setting": "HCT116 cells [2]", "value": 20.6, "unit": "%"}, {"measurement": "cells undergoing apoptosis (FITC-Annexin V, corrected)", "setting": "NCM460 cells", "value": 1.87, "unit": "%"}]}]}
